According to patent publication US20140357512A1, “HISTONE DEACETYLASE (HDAC) BIOMARKERS IN MULTIPLE MYELOMA” (priority 2013, published 2014):

Tested on: human myeloma cell line MM.1S
Assay: SILAC acetylated-lysine peptide profiling, HDAC inhibitor vs DMSO (light/heavy ratio)
Format: cell-based
Description: An embodiment of the invention comprises utilizing the SILAC method in order to quantitate changes in protein expression between two or more populations of cells. The SILAC method is a technique based on mass spectrometry that detects differences in protein abundance among samples using non-radioactive isotopic labeling. The SILAC method is known in the art, and described in detail in Ong et al., “Stable Isotope Labeling by Amino Acids in Cell Culture, SILAC, as a Simple and Accurate Approach to Expression Proteomics”, Molecular & Cellular Proteomics, vol. 1, pp. 376-386 (2002), which is incorporated herein by reference in its entirety.
Briefly, the SILAC method involves growing two populations of cells in cell culture. The first population of cells is grown in growth media containing normal amino acids (“normal media”). The second population of cells is grown in media lacking a standard essential amino acid (such as lysine), but is then supplemented with a non-radioactive, isotopically labeled form of that essential amino acid (such as lysine labeled with ^13C atoms, rather than normal ^12C atoms), which is called “heavy media”. When the two populations of cells are each growing in the medium, they incorporate the amino acids into all of their proteins. The growth of cells maintained in the heavy media is no different from that in normal media. All peptides containing the heavy amino acids are heavier than their normal counterparts. The cells from each of the two populations of cells are lysed. The lysates from each of the two cell populations are then combined. The combined cell lysates are then analyzed by mass spectrometry. Pairs of chemically identical peptides of different stable isotope composition can be differentiated in a mass spectrometer due to their difference in mass. The ratio of peak intensities in the mass spectrum for such peptide pairs reflects the abundance ratio for the two proteins.
This example describes SILAC studies that were performed to compare the effects of three different HDAC inhibitors (Compound A, Compound B, and tubastatin A) to a control on a human multiple myeloma cell line. The HDAC inhibitors were also compared amongst themselves to determine differences in their effects.
A human myeloma cell line MM.1S was grown using either ^12C (light) or ^13C (heavy) lysine containing culture medium. The “heavy” cells were treated with DMSO as the control, and the “light” cells were treated with a single HDAC inhibitor at 37° C. for 6 hours. The heavy and light cells were lysed, and the lysates were mixed in 1:1 ratio and digested with the protease trypsin. The acetylated lysine containing peptides (due to the action of the HDAC inhibitor) in the digested peptide pool were captured by a non-specific anti-acetylated lysine antibody cocktail (the antibodies identify both light and heavy acetylated peptides), and subjected to mass spectrometry analysis in order to identify thousands of individual peptides.
Thousands of peptides were identified in pairs (^12C and ^13C) due to their known mass differences. The amino acid sequence and quantitative ratio (Light/Heavy) of a given peptide in two differentially treated cell lysates were then determined and annotated with their possible protein (gene) sources.
As stated above, three HDAC inhibitors (Compound A, Compound B, and Tubastatin A) were used. Thus, the SILAC method was performed three times, with a different HDAC inhibitor compared to a control each time. Accordingly, there are three pairs of quantitative data in the table below, i.e., Compound A:DMSO, Compound B:DMSO, and Tubastatin A:DMSO. A cut-off of 1.30 fold of change (increase or decrease) was then used to determine “changed” or “+” in the table, and any peptides with a fold of change less than 1.3 fold were determined to be “unchanged” or “0” in the table. Those peptides that were not identified were marked as “NA” in the table. […]

SMILES: O=C(CCCCCCNC(=O)c1cnc(N(c2ccccc2)c2ccccc2)nc1)NO [Compound A, 2-(diphenylamino)-N-(7-(hydroxyamino)-7-oxoheptyl)pyrimidine-5-carboxamide]
- light to heavy ratio (L/H ratio), log 2 scale, acetylated peptide PEPAK(ac)SAPAPKK (SEQ ID NO: 795) (Histone H2B type 2-E [6], gene HIST2H2BE, drug:DMSO): 1.00
- light to heavy ratio (L/H ratio), log 2 scale, acetylated peptide K(ac)AVTK(ac)AQK (SEQ ID NO: 794) (Histone H2B type 2-E [17:21], gene HIST2H2BE, drug:DMSO): 1.00
- light to heavy ratio (L/H ratio) of acetylated peptide AVTK(ac)AQK(ac)K (SEQ ID NO: 560) (Histone H2B type 2-E [21:24], gene HIST2H2BE, inhibitor:DMSO): 0.40 log 2
- light to heavy ratio (L/H ratio) of acetylated peptide K(ac)STGGK(ac)APR (SEQ ID NO: 310) (Histone H3.2 [10:15], HIST2H3D, HIST2H3A, HIST2H3C, drug:DMSO): 1.00 log 2
- light to heavy ratio (L/H ratio), log 2 scale, acetylated peptide K(ac)QLATK(ac)AAR (SEQ ID NO: 796) (Histone H3.2 [19:24], gene HIST2H3D, HIST2H3A, HIST2H3C, drug:DMSO): 1.00
- light to heavy ratio (L/H ratio) of acetylated peptide GK(ac)GGK(ac)GLGK (SEQ ID NO: 311) (Histone H4 [6:9], HIST2H4B, HIST1H4C and other H4 genes, drug:DMSO): 1.00 log 2
- light to heavy ratio (L/H ratio) of acetylated peptide GLGK(ac)GGAK(ac)R (SEQ ID NO: 312) (Histone H4 [13:17], HIST2H4B, HIST1H4C and other H4 genes, drug:DMSO): 1.00 log 2
- light to heavy ratio (L/H ratio) of acetylated peptide GLGK(ac)GGAKR (SEQ ID NO: 313) (Histone H4 [13], HIST2H4B, HIST1H4C and other H4 genes, drug:DMSO): 1.00 log 2
- light to heavy ratio (L/H ratio) of acetylated peptide DGLQNEK(ac)NIVSTPVK (SEQ ID NO: 268) (Hydroxymethylglutaryl-CoA lyase mitochondrial [48], HMGCL, drug:DMSO): 0.45 log 2
- light to heavy ratio (L/H ratio) of acetylated peptide K(ac)[…] (SEQ ID NO: 594) (Hydroxymethylglutaryl-CoA lyase mitochondrial [137], gene HMGCL, inhibitor:DMSO): 0.45 log 2
- L/H ratio of acetylated peptide […](ac)SHR (SEQ ID NO: 56) (IGLV2-14, IGLC2 [208], log 2 scale, drug vs DMSO): 0.00
- light to heavy ratio (L/H ratio) of acetylated peptide, log 2 scale (IGQGYLIK(ac)DGK (SEQ ID NO: 249), 60S ribosomal protein L3 [294], SNORD43, RPL3): −0.44
- L/H ratio of acetylated peptide (IK(ac)[…] (SEQ ID NO: 480), Isoform 2 of Heat shock protein HSP 90-alpha [403], HSP90AA1): 0.39 log 2
- L/H ratio of acetylated peptide (IVQK(ac)[…] (SEQ ID NO: 489), Death-associated protein 1 [29], DAP): 1.00 log 2
- light to heavy ratio (L/H ratio), log 2 scale, acetylated peptide ADLIK(ac)QYGR (SEQ ID NO: 798) (Inactive hydroxysteroid dehydrogenase-like protein 1 [64], gene HSDL1, drug:DMSO): 1.00
- light to heavy ratio (L/H ratio), log 2 scale, acetylated peptide LMK(ac)ICMNEDPAK (SEQ ID NO: 800) (Integrin-linked protein kinase [426], gene ILK, drug:DMSO): 1.00
- light to heavy ratio (L/H ratio) of acetylated peptide HAHGDQYK(ac)ATDFVADR (SEQ ID NO: 574) (Isocitrate dehydrogenase [NADP] mitochondrial [180], gene IDH2, inhibitor:DMSO): 0.42 log 2
- light to heavy ratio (L/H ratio) of acetylated peptide AGTFK(ac)MVFTPK (SEQ ID NO: 606) (Isocitrate dehydrogenase [NADP] mitochondrial [193], gene IDH2, inhibitor:DMSO): 0.46 log 2
- light to heavy ratio (L/H ratio) of acetylated peptide TDFDKNK(ac)IWYEHR (SEQ ID NO: 555) (Isocitrate dehydrogenase [NADP] mitochondrial [282], gene IDH2, inhibitor:DMSO): 0.40 log 2
- light to heavy ratio (L/H ratio) of acetylated peptide AVLIDK(ac)DQSPK (SEQ ID NO: 577) (Isoform 1 of 3-hydroxyisobutyryl-CoA hydrolase mitochondrial [353], gene HIBCH, inhibitor:DMSO): 0.43 log 2
- light to heavy ratio (L/H ratio) of acetylated peptide TSSAFVGK(ac)TPEASPEPK (SEQ ID NO: 598) (Isoform 1 of 26S proteasome non-ATPase regulatory subunit 1 [310], gene PSMD1, inhibitor:DMSO): 0.46 log 2
- light to heavy ratio (L/H ratio) of acetylated peptide […](ac)VVQER (SEQ ID NO: 318) (Isoform 1 of 39S ribosomal protein L47 mitochondrial [144], MRPL47, drug:DMSO): 1.00 log 2
- light to heavy ratio (L/H ratio) of acetylated peptide ATVPK(ac)TEIR (SEQ ID NO: 272) (Isoform 1 of 40S ribosomal protein S24 [37], RPS24, drug:DMSO): 0.47 log 2
- light to heavy ratio (L/H ratio) of acetylated peptide AEEILEK(ac)GLK (SEQ ID NO: 547) (Isoform 1 of 60S ribosomal protein L11 [85], gene RPL11, inhibitor:DMSO): 0.39 log 2
- light to heavy ratio (L/H ratio) of acetylated peptide ISK(ac)EEAMR (SEQ ID NO: 299) (Isoform 1 of 60S ribosomal protein L11 [159], RPL11, drug:DMSO): 0.84 log 2
- light to heavy ratio (L/H ratio) of acetylated peptide AGLVDDFEK(ac)K (SEQ ID NO: 301) (Isoform 1 of ATP synthase subunit d mitochondrial [72], ATP5H, drug:DMSO): 0.86 log 2
- light to heavy ratio (L/H ratio) of acetylated peptide VPVPEDK(ac)[…] (SEQ ID NO: 290) (Isoform 1 of ATP synthase subunit d mitochondrial [85], ATP5H, drug:DMSO): 0.66 log 2
- light to heavy ratio (L/H ratio) of acetylated peptide GK(ac)FGNVYLAR (SEQ ID NO: 537) (Isoform 1 of Aurora kinase C [53], gene AURKC, inhibitor:DMSO): −0.39 log 2
- light to heavy ratio (L/H ratio) of acetylated peptide VWNYK(ac)LR (SEQ ID NO: 593) (Isoform 1 of Coatomer subunit alpha [81], gene COPA, inhibitor:DMSO): 0.45 log 2
- light to heavy ratio (L/H ratio) of acetylated peptide SLLK(ac)PFCAALLK (SEQ ID NO: 329) (Isoform 1 of Cytoskeleton-associated protein 5 [438], CKAP5, drug:DMSO): 0.00 log 2
- light to heavy ratio (L/H ratio) of acetylated peptide VLGTVK(ac)WFNVR (SEQ ID NO: 515) (Isoform 1 of DNA-binding protein A [96], gene CSDA, inhibitor:DMSO): −0.57 log 2
- light to heavy ratio (L/H ratio) of acetylated peptide TLK(ac)ALEYVFK (SEQ ID NO: 516) (Isoform 1 of Dedicator of cytokinesis protein 2 [738], gene DOCK2, inhibitor:DMSO): −0.57 log 2
- light to heavy ratio (L/H ratio), log 2 scale, acetylated peptide VAFK(ac)YCQK (SEQ ID NO: 775) (Isoform 1 of Dolichyl-phosphate beta-glucosyltransferase [122], gene ALG5, drug:DMSO): 1.00
- light to heavy ratio (L/H ratio), log 2 scale, acetylated peptide ILSK(ac)LSEETK (SEQ ID NO: 759) (Isoform 1 of E3 UFM1-protein ligase 1 [614], gene UFL1, drug:DMSO): 0.91
- light to heavy ratio (L/H ratio), log 2 scale, acetylated peptide NEEATK(ac)HLECTK (SEQ ID NO: 785) (Isoform 1 of Fragile X mental retardation syndrome-related protein 1 [207], gene FXR1, drug:DMSO): 1.00
- light to heavy ratio (L/H ratio) of acetylated peptide ELEK(ac)VCNPIITK (SEQ ID NO: 612) (Isoform 1 of Heat shock cognate 71 kDa protein [601], gene HSPA8, inhibitor:DMSO): 0.47 log 2
